In patent publication US7186703B2, “Derivatives of branched-chain lipophilic molecules and uses thereof” (D-Pharm Ltd., priority 2000, dated 2007):
“And” between values parts separate entries of the source, which are not always exact repeats. Identical values can stand only once. Like-named read-outs stand apart in the source and are kept apart here.

How the values were obtained:
[1] = system: blood brain barrier (BBB); test: BBB permeabilization in rats, Evans blue extravasation into brain; type: in vivo, Sprague-Dawley rats; details: for MEC: Table 8, sodium salt, in µM; for μg EB/g brain (at EC50): at EC50 (Mannitol at 25%); for MEC (minimal effective concentration): concentration giving 3 μg EB/g brain
[2] = system: blood brain barrier (BBB); test: BBB permeability to EB-albumin and Fluorescein in normal rat brains; type: in vivo; details: compounds at EC50 (Mannitol 25%); for Ratio F-Na/EB (mean of individual ratios): control 9.5 ± 1.6; for % EB/g brain: control 0.04 ± 0.01; for Brain fluorescein uptake (% of serum F-Na level): control 0.3 ± 0.08
How it was run: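 In normal rats, Evans blue–albumin (70 kD) and fluorescein sodium (376 D) were infused into the external carotid artery over 30 s, with test compounds at their EC50 concentrations or vehicle. EB reported as percent of total per gram brain; fluorescein as percent of serum level.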

[3] = system: Neuro2a neuroblastoma cell line; test: MTT cytotoxicity, Neuro2a; type: cell-based, mouse; details: three days, read-out: EC50 (50% reduction in cell viability)
Protocol: The cytotoxic activity of various phospho-derivatives of branched-chain fatty acids (DP-BFAs) was assayed in vitro in cell cultures that include normal and malignant cell types. The following cell systems were used: • Primary fibroblasts (human) • Normal bone marrow (BM) cells (mouse) • Primary bronchial epithelial cells (human, from Clonetics, cat. no. CC-2541) • Caco-2—colon cancer cell line (human, ATTC, HTB-37) • C6 glioma cell line (rat, ATCC, CRL-2199) • Neuro2a—neuroblastoma cell line (mouse, ATCC, CCL-131) • SKBR-3—breast cancer cell line (human, ATTC, HTB-30) • HL60—myeloid leukemia cell line (human, ATCC, CCL-240) • U937—myeloid leukemia cell line (human)
Cells were seeded in a microtiter plate in MEM containing 2 mM L-glutamine, 100 units/ml penicillin, 100 ug/ml streptomycin and 10% FCS at 37° C. The cultured cells were incubated, during their linear growth phase in the absence (control group) or presence of various DP-BFAs as indicated. The final concentrations of the tested DP-BFAs ranged from 1.5 to 200 microMolars. At the end of the incubation period, which was five days for the bone marrow cells and three days for all the other cell lines, the cytotoxic effect of the added P-BFA on the cells was estimated by using the colorimetric MTT assay. The MTT assay (Mosmann (1983) J. Immunol Methods 65: 55–63) measures mitochondrial reductase activity and serves for quantitative assessment of cellular viability. Drug concentration that causes 50% reduction in cell viability in comparison to the control group, is defined as EC50. The EC50 values of the tested DP-BFA compounds were calculated from dose response curves established for each of the different assayed cell lines.
Each EC50 value is an average of EC50 values derived from 1–5 independent experiments.

[4] = Table 6, rat brains, Evans blue extravasation, read-out: EQ50 (the source's name)

Compound	MEC [1]	Ratio F-Na/EB (mean of individual ratios) [2]	μg EB/g brain (at EC50) ([1]; Table 6)	MEC (minimal effective concentration) ([1]; Table 6)	EC50 [1, 4] [µM]	EC50 ([3]; Mus musculus, N2a, 72 h) [µM]	% EB/g brain [2] [%]	Brain fluorescein uptake (% of serum F-Na level) [2]	EC50 [3] [µM]	permeabilization of the BBB (FIG. 1, in words) ([1]; Evans blue extravasation in rat brain, 3,n-type BFAs)	MEC (minimal effective concentration) ([1]; Table 5)	EC50 ([1]; Table 5, rat brain, intracarotid infusion, read-out: EC50 (Evans Blue extravasation)) [µM]
2-(4′-Hexadecanoyloxy)ethoxyethyl phosphate [3,12-DEG-PO4]	3.0 ± 0.5	around 9	–	–	–	–	–	–	–	–	–	–
CCCCCCCCCCCCC(CCC)C(=O)OCCOP(=O)([O-])OCC[N+](C)(C)C (stereo not shown) [3,12-MEG-PC, 2-(2′-Propyltetradecanoyloxy)ethylphosphocholine]	10 ± 1	6.9 ± 0.1	15 ± 2 μg EB/g brain	10 ± 1 µM	19.5 ± 1.5	70	0.9 ± 0.2	5.2 ± 0.8 % of the F—Na level in the ser	–	–	–	–
CCCCCCCCCCCCC(CCC)OP(=O)([O-])OCC[N+](C)(C)C (stereo not shown) [3,12-PC, 4-Hexadecanyl phosphocholine]	23 ± 4	7.8 ± 1.3	10 ± 1 μg EB/g brain	23 ± 4 µM	76 ± 14	–	0.8 ± 0.1	3.0 ± 0.5 % of the F—Na level in the ser	–	–	–	–
CCCCCCCCCCCCC(CCC)C(=O)OCCOCCOP(=O)([O-])[O-].[Na+].[Na+] (stereo not shown) [3,12-DEG-PO4Na2, 2-[2′-(2″-Propyltetradecanoyloxy)-ethoxy]ethyl Disodium Phosphate]	–	9.0 ± 1.2	18 μg EB/g brain and 18 ± 3 μg EB/g brain	3.3 µM and 3.3 ± 0.5 µM	20	–	1.4 ± 0.2	9.0 ± 1.4 % of the F—Na level in the ser	58	–	–	–
CCCCCCCCCCCCC(CCC)C(=O)OCCOCCOP(=O)([O-])OCC[N+](C)(C)C (stereo not shown) [3,12-DEG-PC, 2-(2′-Propyltetradecanoyloxy)ethoxyethylphosphocholine]	15 ± 2	6.8 ± 0.8	14 ± 2 μg EB/g brain	15 ± 2 µM	70 ± 12	134	0.6 ± 0.1	2.9 ± 0.5 % of the F—Na level in the ser	–	–	–	–
CCCCCCCCCCCCC(CCC)C(=O)[O-].[Na+] (stereo not shown) [3,12-Na, reference compound]	6.5 ± 0.7	4.9 and 4.9 ± 0.9	–	–	–	–	1.8 ± 0.2	6.4 ± 1.1 % of the F—Na level in the ser	76	active	6.5 ± 0.7	20 ± 3
